# Data published in patent US10927078B2, “Modulators of indoleamine 2,3-dioxygenase” (GLAXOSMITHKLINE INTELLECTUAL PROPERTY DEVELOPMENT LIMITED, priority 2017, dated 2021).
# Target: indoleamine 2, 3-dioxygenase (IDO1) (Homo sapiens, UniProt P14902)
# Assay: PBMC IDO1 assay (kynurenine via mass spectrometry)
# Format: cell-based
# Settings: not given
# Procedure: Compounds of the present invention were tested via high-throughput cellular assays utilizing detection of kynurenine via mass spectrometry and cytotoxicity as end-points. For the mass spectrometry and cytotoxicity assays, human peripheral blood mononuclear cells (PBMC) (PB003F; AllCells®, Alameda, Calif.) were stimulated with human interferon-γ (IFN-γ) (Sigma-Aldrich Corporation, St. Louis, Mo.) and lipopolysaccharide from Salmonella minnesota (LPS) (Invivogen, San Diego, Calif.) to induce the expression of indoleamine 2, 3-dioxygenase (IDO1). Compounds with IDO1 inhibitory properties decreased the amount of kynurenine produced by the cells via the tryptophan catabolic pathway. Cellular toxicity due to the effect of compound treatment was measured using CellTiter-Glo® reagent (CTG) (Promega Corporation, Madison, Wis.), which is based on luminescent detection of ATP, an indicator of metabolically active cells.
# In preparation for the assays, test compounds were serially diluted 3-fold in DMSO from a typical top concentration of 5 mM and plated at 0.5 μL in 384-well, polystyrene, clear bottom, tissue culture treated plates with lids (Greiner Bio-One, Kremsmünster, Austria) to generate 11-point dose response curves. Low control wells (0% kynurenine or 100% cytotoxicity) contained either 0.5 μL of DMSO in the presence of unstimulated (-IFN-γ/-LPS) PBMCs for the mass spectrometry assay or 0.5 μL of DMSO in the absence of cells for the cytotoxicity assay, and high control wells (100% kynurenine or 0% cytotoxicity) contained 0.5 μL of DMSO in the presence of stimulated (+IFN-γ/+LPS) PBMCs for both the mass spectrometry and cytotoxicity assays.
# Frozen stocks of PBMCs were washed and recovered in RPMI 1640 medium (Thermo Fisher Scientific, Inc., Waltham, Mass.) supplemented with 10% v/v heat-inactivated fetal bovine serum (FBS) (Thermo Fisher Scientific, Inc., Waltham, Mass.), and 1× penicillin-streptomycin antibiotic solution (Thermo Fisher Scientific, Inc., Waltham, Mass.). The cells were diluted to 1,000,000 cells/mL in the supplemented RPMI 1640 medium. 50 μL of either the cell suspension, for the mass spectrometry assay, or medium alone, for the cytotoxicity assay, were added to the low control wells, on the previously prepared 384-well compound plates, resulting in 50,000 cells/well or 0 cells/well respectively. IFN-γ and LPS were added to the remaining cell suspension at final concentrations of 100 ng/ml and 50 ng/ml respectively, and 50 μL of the stimulated cells were added to all remaining wells on the 384-well compound plates. The plates, with lids, were then placed in a 37° C., 5% CO2 humidified incubator for 2 days.
# Following incubation, the 384-well plates were removed from the incubator and allowed to equilibrate to room temperature for 30 minutes. For the cytotoxicity assay, CellTiter-Glo® was prepared according to the manufacturer's instructions, and 40 μL were added to each plate well. After a twenty minute incubation at room temperature, luminescence was read on an EnVision® Multilabel Reader (PerkinElmer Inc., Waltham, Mass.). For the mass spectrometry assay, 10 μL of supernatant from each well of the compound-treated plates were added to 40 μL of acetonitrile, containing 10 μM of an internal standard for normalization, in 384-well, polypropylene, V-bottom plates (Greiner Bio-One, Kremsmünster, Austria) to extract the organic analytes. Following centrifugation at 2000 rpm for 10 minutes, 10 μL from each well of the acetonitrile extraction plates were added to 90 μL of sterile, distilled H2O in 384-well, polypropylene, V-bottom plates for analysis of kynurenine and the internal standard on the RapidFire 300 (Agilent Technologies, Santa Clara, Calif.) and 4000 QTRAP MS (SCIEX, Framingham, Mass.). MS data were integrated using Agilent Technologies' RapidFire Integrator software, and data were normalized for analysis as a ratio of kynurenine to the internal standard. […]
# indoleamine 2, 3-dioxygenase (IDO1), sequence (P14902 whole entry): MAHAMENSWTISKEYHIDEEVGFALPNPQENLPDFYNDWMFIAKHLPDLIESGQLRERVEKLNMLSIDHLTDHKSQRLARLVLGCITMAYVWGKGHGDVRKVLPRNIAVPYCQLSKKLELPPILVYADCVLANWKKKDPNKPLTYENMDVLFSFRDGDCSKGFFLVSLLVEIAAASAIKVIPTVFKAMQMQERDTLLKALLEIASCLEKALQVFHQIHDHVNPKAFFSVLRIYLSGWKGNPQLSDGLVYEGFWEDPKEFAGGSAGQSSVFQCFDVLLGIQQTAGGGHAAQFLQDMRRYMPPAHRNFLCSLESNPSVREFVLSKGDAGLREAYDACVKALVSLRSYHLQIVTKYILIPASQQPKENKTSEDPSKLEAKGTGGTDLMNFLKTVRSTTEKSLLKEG
row,SMILES,IC50
1,"COc1ncccc1OC(=O)N1CCC([C@H](NC(=O)c2ccc(Cl)cc2)c2ccccc2)CC1 [Example 49, 2-methoxypyridin-3-yl 4-[(S)-[(4-chlorophenyl)formamido](phenyl)methyl]piperidine-1-carboxylate]",10 nM
2,"Cc1ncccc1OC(=O)N1CCC(C(CC(C)C)NC(=O)c2ccc(Cl)cc2)CC1 (stereo not shown) [Example 6, 2-methylpyridin-3-yl 4-{1-[(4-chlorophenyl)formamido]-3-methylbutyl}piperidine-1-carboxylate]",1.58 nM
3,"COCCC[C@@H](NC(=O)c1ccc(F)cc1)C1CCN(C(=O)Oc2cccnc2F)CC1 [Example 76, 2-fluoropyridin-3-yl 4-[(1R)-1-[(4-fluorophenyl)formamido]-4-methoxybutyl]piperidine-1-carboxylate]",158 nM
4,"CC(C)CC(NC(=O)c1ccc(Cl)cc1)C1CCN(C(=O)Oc2cccnc2C#N)CC1 (stereo not shown) [Example 5, 2-cyanopyridin-3-yl 4-{1-[(4-chlorophenyl)formamido]-3-methylbutyl}piperidine-1-carboxylate]",1.58 nM
5,"CC(C)CC(NC(=O)c1ccc(F)cc1)C1CCN(C(=O)Oc2cncc(F)c2)CC1 (stereo not shown) [Example 45, 5-fluoropyridin-3-yl 4-{1-[(4-fluorophenyl)formamido]-3-methylbutyl}piperidine-1-carboxylate]",10 nM

# Same assay, conditions: human PBMC stimulated with IFN-γ and LPS, 2 days, kynurenine by mass spectrometry; recorded as pIC50; read-out: PBMC PXC50_ (converted)
row,SMILES,IC50
1,"CC(NC(=O)c1ccc(Cl)s1)C1CCN(C(=O)Oc2ccccc2)CC1 (stereo not shown) [Example 52, phenyl 4-{1-[(5-chlorothiophen-2-yl)formamido]ethyl}piperidine-1-carboxylate]",15.8 nM
2,"Cc1nccc(OC(=O)N2CCC(C(CC(C)C)NC(=O)c3ccc(F)cc3)CC2)c1F (stereo not shown) [Example 51, 3-fluoro-2-methylpyridin-4-yl 4-{1-[(4-fluorophenyl)formamido]-3-methylbutyl}piperidine-1-carboxylate]",12.6 nM
3,"CC(C)(C)OC(=O)N1CCC(C(NC(=O)c2ccccc2)c2ccccc2)CC1 (stereo not shown) [Example 98, tert-butyl 4-[phenyl(phenylformamido)methyl]piperidine-1-carboxylate]",1580 nM
4,"Cc1c(F)cccc1OC(=O)N1CCC([C@@H](C)NC(=O)c2ccccc2)CC1 [Example 56, 3-fluoro-2-methylphenyl 4-[(1R)-1-(phenylformamido)ethyl]piperidine-1-carboxylate]",25.1 nM
5,"CC(C)CC(NC(=O)c1ccc(F)cc1)C1CCN(C(=O)Oc2cccc(F)c2Cl)CC1 (stereo not shown) [Example 11, 2-chloro-3-fluorophenyl 4-{1-[(4-fluorophenyl)formamido]-3-methylbutyl}piperidine-1-carboxylate]",2.51 nM
6,"Cc1c(OC(=O)N2CCC(C(CC(C)C)NC(=O)c3ccc(F)cc3)CC2)ccnc1F (stereo not shown) [Example 33, 2-fluoro-3-methylpyridin-4-yl 4-{1-[(4-fluorophenyl)formamido]-3-methylbutyl}piperidine-1-carboxylate]",6.31 nM
7,"CC(C)(C)OC(=O)N1CCC(C(NC(=O)c2cccc3cc[nH]c23)c2ccccc2)CC1 (stereo not shown) [Example 85, tert-butyl 4-{[(1H-indol-7-yl)formamido](phenyl)methyl}piperidine-1-carboxylate]",631 nM
8,"CC(C)CC(NC(=O)c1ccc(F)cc1)C1CCN(C(=O)Oc2cccc(F)c2C#N)CC1 (stereo not shown) [Example 12, 2-cyano-3-fluorophenyl 4-{1-[(4-fluorophenyl)formamido]-3-methylbutyl}piperidine-1-carboxylate]",2.51 nM
9,"CC(C)CC(NC(=O)c1cccc2cn[nH]c12)C1CCN(C(=O)Oc2ccccc2)CC1 (stereo not shown) [Example 110, phenyl 4-(1-(1H-indazole-7-carboxamido)-3-methylbutyl)piperidine-1-carboxylate]",12.6 nM
10,"Cc1nccc(OC(=O)N2CCC(C(CC(C)C)NC(=O)c3ccc(F)cc3)CC2)c1C (stereo not shown) [Example 44, 2,3-dimethylpyridin-4-yl 4-{1-[(4-fluorophenyl)formamido]-3-methylbutyl}piperidine-1-carboxylate]",10 nM
11,"O=C(NC(c1ccncc1)C1CCN(C(=O)Oc2ccccc2)CC1)c1ccccc1 (stereo not shown) [Example 77, phenyl 4-[(phenylformamido)(pyridin-4-yl)methyl]piperidine-1-carboxylate]",200 nM
12,"O=C(NC(C1CC1)C1CCN(C(=O)Oc2cncnc2)CC1)c1ccc(Cl)s1 (stereo in doubt) [Example 115, (S)-pyrimidin-5-yl 4-((5-chlorothiophene-2-carboxamido)(cyclopropyl)methyl)piperidine-1-carboxylate]",50.1 nM
13,"CC(C)CC(NC(=O)c1ccc(F)cc1)C1CCN(C(=O)Oc2ccncc2F)CC1 (stereo not shown) [Example 47, 3-fluoropyridin-4-yl 4-{1-[(4-fluorophenyl)formamido]-3-methylbutyl}piperidine-1-carboxylate]",10 nM
14,"CC(C)C[C@@H](NC(=O)c1ccc(F)cc1)C1CCN(C(=O)Oc2ccccc2)CC1 [Example 27, phenyl 4-[(1R)-1-[(4-fluorophenyl)formamido]-3-methylbutyl]piperidine-1-carboxylate]",5.01 nM
15,"O=C(NC(c1ccncc1)C1CCN(C(=O)Oc2ccccc2)CC1)c1ccc(F)cc1 (stereo not shown) [Example 65, phenyl 4-{[(4-fluorophenyl)formamido](pyridin-4-yl)methyl}piperidine-1-carboxylate]",100 nM
16,"CC(C)C[C@@H](NC(=O)c1ccc(Cl)s1)C1CCN(C(=O)Oc2ccccc2)CC1 [Example 8, phenyl 4-[(1R)-1-[(5-chlorothiophen-2-yl)formamido]-3-methylbutyl]piperidine-1-carboxylate]",2 nM
17,"CC(C)C[C@H](NC(=O)c1ccccc1)C1CCN(C(=O)Oc2ccccc2)CC1 [Example 75, phenyl 4-[(1S)-3-methyl-1-(phenylformamido)butyl]piperidine-1-carboxylate]",158 nM
18,"Cc1ncnc(C)c1OC(=O)N1CCC([C@@H](NC(=O)c2ccc(Cl)s2)C2CC2)CC1 [Example 112, (S)-4,6-dimethylpyrimidin-5-yl 4-((5-chlorothiophene-2-carboxamido)(cyclopropyl)methyl)piperidine-1-carboxylate]",10 nM
19,"Cc1nccc(OC(=O)N2CCC(C(CC(C)C)NC(=O)c3ccc(Cl)cc3)CC2)c1C (stereo not shown) [Example 35, 2,3-dimethylpyridin-4-yl 4-{1-[(4-chlorophenyl)formamido]-3-methylbutyl}piperidine-1-carboxylate]",6.31 nM
20,"CC(C)CC(NC(=O)c1ccc(F)cc1)C1CCN(C(=O)Oc2ccc(Cl)cc2)CC1 (stereo not shown) [Example 59, 4-chlorophenyl 4-{1-[(4-fluorophenyl)formamido]-3-methylbutyl}piperidine-1-carboxylate]",50.1 nM
21,"CC(C)CC(NC(=O)c1ccc(F)cc1)C1CCN(C(=O)Oc2ccccc2)CC1 (stereo not shown) [Example 37, phenyl 4-{1-[(4-fluorophenyl)formamido]-3-methylbutyl}piperidine-1-carboxylate]",7.94 nM
22,"CC(C)CC(NC(=O)c1ccc(Cl)s1)C1CCN(C(=O)Oc2ccccc2)CC1 (stereo not shown) [Example 16, phenyl 4-{1-[(5-chlorothiophen-2-yl)formamido]-3-methylbutyl}piperidine-1-carboxylate]",3.16 nM
23,"O=C(NC(c1ccncc1)C1CCN(C(=O)Oc2ccncc2)CC1)c1ccc(F)cc1 (stereo not shown) [Example 94, pyridin-4-yl 4-{[(4-fluorophenyl)formamido](pyridin-4-yl)methyl}piperidine-1-carboxylate]",1000 nM
